Laboratory results taken from patent US9260418B2, “Pyranyl aryl methyl benzoquinolinone M1 receptor positive allosteric modulators” (Merck Sharp & Dohme Corp., priority 2009, dated 2016).

Target: T1, acetylcholine muscarinic M1 receptor (Homo sapiens, UniProt P11229)
T1 construct: expressed in transfected cells; host or cells: CHOnfat cells (CHO), under Geneticin selection; b382 calls them CHOK1/hM1
T1 sequence (P11229 1-460): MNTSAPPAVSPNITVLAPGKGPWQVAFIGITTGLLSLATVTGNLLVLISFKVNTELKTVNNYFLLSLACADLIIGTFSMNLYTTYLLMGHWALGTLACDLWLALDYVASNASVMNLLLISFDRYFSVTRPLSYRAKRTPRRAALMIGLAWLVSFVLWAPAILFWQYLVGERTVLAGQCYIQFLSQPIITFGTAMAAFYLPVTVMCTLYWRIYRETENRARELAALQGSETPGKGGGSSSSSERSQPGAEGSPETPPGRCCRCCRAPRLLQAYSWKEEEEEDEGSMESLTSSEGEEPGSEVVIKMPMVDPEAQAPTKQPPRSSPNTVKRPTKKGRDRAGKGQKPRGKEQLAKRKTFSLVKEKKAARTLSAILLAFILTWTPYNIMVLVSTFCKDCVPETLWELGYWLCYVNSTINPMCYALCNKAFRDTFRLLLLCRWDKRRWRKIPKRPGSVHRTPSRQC
Assay: muscarinic FLIPR intracellular calcium assay, potentiation of EC20 acetylcholine in CHOnfat/hM1 cells
Type: cell-based
Settings: inflection point calculated from FLIPR values, 4 min preincubation, then EC20 acetylcholine (3 nM final), read-out: IP Value
Protocol: The assay studies the effect of one or several concentrations of test compounds on basal or acetylcholine-stimulated Ca^2+ levels using FLIPR.
Compounds are prepared and subjected to a preincubation period of 4 min. Thereafter, a single EC20 concentration of acetylcholine is added to each well (3 nM final). The intracellular Ca^2+ level of each sample is measured and compared to an acetylcholine control to determine any modulatory activity.
Cells: CHOnfat/hM1, hM2, hM3 or hM4 cells are plated 24 hr before the assay at a density of 18,000 cells/well (100 μL) in a 384 well plate. CHOnfat/hM1 and CHOnfat/hM3 Growth Medium: 90% DMEM (Hi Glucose); 10% HI FBS; 2 mM L-glutamine; 0.1 mM NEAA; Pen-Strep; and 1 mg/ml Geneticin, are added. For M2Gqi5CHOnfat and M4Gqi5CHOnfat cells, an additional 600 ug/ml hygromycin is added.
Equipment: 384 well plate, 120 μL addition plate; 96-well Whatman 2 ml Uniplate Incubator, 37° C., 5% CO2; Skatron EMBLA-384 Plate Washer; Multimek Pipetting System; Genesis Freedom 200 System; Mosquito System; Temo Nanolitre Pipetting System; and FLIPR^384 Fluorometric Imaging Plate Reader System are used.
Buffers. Assay Buffer: Hanks Balanced Salt Solution, with 20 mM Hepes, 2.5 mM Probenecid (Sigma P-8761) first dissolved in 1 N NaOH, 1% Bovine Serum Albumin (Sigma A-9647). Dye Loading Buffer: Assay Buffer plus 1% Fetal Bovine Serum and Fluo-4AM/Pluronic Acid Mixture. 2 mM Fluo-4AM ester stock in DMSO (Molecular Probes F-14202) Concentration of 2 μM in buffer for a final concentration of 1 μM in Assay. 20% Pluronic Acid Solution stock, with concentration of 0.04% in Buffer, 0.02% in Assay.
65 μL of 2 mM Fluo-4AM are mixed with 130 μL of 20% Pluronic Acid. The resulting solution and 650 μL FBS is added to the assay buffer for a total volume of 65 mL. Positive Controls: 4-Br-A23187: 10 mM in DMSO; final concentration 10 μM. Acetylcholine: 10 mM in water, working stock at both 20 μM and 30 μM in assay buffer, final concentration of 10 μM. This is used to check the maximum stimulation of the CHOK1/hM1 cells. 20 μM (2×) acetylcholine is added in the preincubation part of the assay, and the 30 μM (3×) stock is added in the second part. (EC20)Acetylcholine: 10 mM in water, working stock of 9 nM (3×), and final concentration in assay is 3 nM. This is used after the preincubation with test compounds. Addition of the EC20 Acetylcholine to each well with a test compound will ascertain any modulator activity. 24 wells contain 3 nM Acetylcholine alone as a control.
Screening Plate: Compounds are titrated in 96-well plates (columns 2-11), 100% DMSO, started at a concentration of 15 mM (150× stock concentration), and 3-fold serial dilutions using Genesis Freedom200 System. Four 96-well plates are combined into a 384-well plate using Mosquito Nanolitre Pipetting System by transferring 1 μl of serial diluted compounds to each well, and 1 mM acetylcholine (100× stock concentration) were added as a control. Using Temo, 49 μl assay buffer is added to each well of the 384-well plate right before assay.
In a 96-well Whatman 2 ml Uniplate, 9 nM Acetylcholine (3×) is pipetted into wells corresponding to the screening compounds, and into control wells. The 30 μM acetylcholine control (3×) is added into control wells, and the 3× agonist plate is transferred into a 384 well plate.
Cells are washed three times with 100 μL of buffer, leaving 30 μL of buffer in each well. Using Multimek, 30 μL of Dye Loading Buffer is added into each well and incubated at 37° C., 5% CO2 for up to one hr.
After 60 min, the cells are washed three times with 100 μL of buffer, leaving 30 μL of buffer in each well. The cell plate, screening plate, and agonist addition plates are placed on the platform in the FLIPR and the door closed. A signal test to check background fluorescence and basal fluorescence signal is performed. Laser intensity is adjusted if necessary. […]

Row | EC50 [nM] | Structure (SMILES)
1 | 54 | O=c1c2cc(Cc3ccc(Cl)nc3)c3ccccc3c2ncn1[C@H]1CCNC[C@@H]1O (racemic) [Example 35, rac-6-[(6-Chloropyridin-3-yl)methyl]-3-[(3R,4R)-3-hydroxypiperidin-4-yl]benzo[h]quinazolin-4(3)H-one]
2 | 120 | CC(=O)N1CC[C@H](n2cnc3c(cc(Cc4ccc(Cl)nc4)c4ccccc43)c2=O)[C@@H](O)C1 (racemic) [Example 36, rac-3-[(3R,4R)-1-acetyl-3-hydroxypiperidin-4-yl]-6-[(6-chloropyridin-3-yl)methyl]benzo[h]quinazolin-4(3H)-one]
3 | 13 | O=c1c2cc(Cc3ccc(Cl)nc3)c3ccccc3c2ncn1[C@H]1CCOC[C@@H]1O [Example 1, 6-[(6-Chloropyridin-3-yl)methyl]-3-[(3R,4S)-3-hydroxytetrahydro-2H-pyran-4-yl]benzo[h]quinazolin-4(3H)-one]
4 | 14 | CSc1ccc(Cc2cc3c(=O)n([C@H]4CCOC[C@@H]4O)cnc3c3ccccc23)cn1 [Example 2, 3-[(3R,4S)-3-Hydroxytetrahydro-2H-pyran-4-yl]-6-{[(6-methylthio)pyridin-3-yl)methyl]benzo[h]quinazolin-4(3H)-one]
5 | 15 | Cc1ccc(Cc2cc3c(=O)n([C@H]4CCOC[C@@H]4O)cnc3c3ccccc23)cn1 [Example 3, 3-[(3R,4S)-3-Hydroxytetrahydro-2H-pyran-4-yl]-6-[(6-methylpyridin-3-yl)methyl]benzo[h]quinazolin-4(3H)-one]
6 | 2.5 | Cn1cc(-c2ccc(Cc3cc4c(=O)n([C@H]5CCOC[C@@H]5O)cnc4c4ccccc34)cn2)cn1 [Example 4, 3-[(3R,4S)-3-Hydroxytetrahydro-2H-pyran-4-yl]-6-{[6-(1-methyl-1H-pyrazol-4-yl)pyridine-3-yl]methyl}benzo[h]quinazolin-4(3H)-one]
7 | 15 | O=c1c2cc(Cc3ccc(-n4cccn4)nc3)c3ccccc3c2ncn1[C@H]1CCOC[C@@H]1O [Example 5, 3-[(3R,4S)-3-Hydroxytetrahydro-2H-pyran-4-yl]-6-{[6-(1H-pyrazol-1-yl)pyridine-3-yl]methyl}benzo[h]quinazolin-4(3H)-one]
8 | 23 | O=c1c2cc(Cc3cccnc3)c3ccccc3c2ncn1[C@H]1CCOC[C@@H]1O [Example 6]
9 | 16.8 | COc1ccc(Cc2cc3c(=O)n([C@H]4CCOC[C@@H]4O)cnc3c3ccccc23)cn1 [Example 7, 3-[(3R,4S)-3-Hydroxytetrahydro-2H-pyran-4-yl]-6-[(6-methoxypyridin-3-yl)methyl]benzo[h]quinazolin-4(3H)-one]
10 | 31 | N#Cc1ccc(Cc2cc3c(=O)n([C@H]4CCOC[C@@H]4O)cnc3c3ccccc23)cn1 [Example 8, 5-({3-[(3R,4S)-3-Hydroxytetrahydro-2H-pyran-4-yl]-4-oxo-3,4-dihydrobenzo[h]quinazolin-6-yl}methyl)pyridine-2-carbonitrile]
11 | 16 | CCc1ccc(Cc2cc3c(=O)n([C@H]4CCOC[C@@H]4O)cnc3c3ccccc23)cn1 [Example 9, 6-[(6-Ethylpyridin-3-yl)methyl]-3-[(3R,4S)-3-hydroxytetrahydro-2H-pyran-4-yl]benzo[h]quinazolin-4(3H)-one]
12 | 30 | CC(=O)c1ccc(Cc2cc3c(=O)n([C@H]4CCOC[C@@H]4O)cnc3c3ccccc23)cn1 [Example 10, 6-[(6-Acetylpyridin-3-yl)methyl]-3-[(3R,4S)-3-hydroxytetrahydro-2H-pyran-4-yl]benzo[h]quinazolin-4(3H)-one]
13 | 76 | CC(C)(O)c1ccc(Cc2cc3c(=O)n([C@H]4CCOC[C@@H]4O)cnc3c3ccccc23)cn1 [Example 11, 6-{[6-(1-Hydroxy-1-methylethyl)pyridine-3-yl]methyl}-3-[(3R,4S)-3-hydroxytetrahydro-2H-pyran-4-yl]benzo[h]quinazolin-4(3H)-one]
14 | 21 | O=c1c2cc(Cc3ccc(N4CCOCC4)cc3)c3ccccc3c2ncn1[C@H]1CCOC[C@@H]1O [Example 12, 3-[(3R,4S)-3-Hydroxytetrahydro-2H-pyran-4-yl]-6-(4-morpholin-4-ylbenzyl)benzo[h]quinazolin-4(3H)-one]
15 | 5.8 | O=c1c2cc(Cc3ccc(-c4cscn4)nc3)c3ccccc3c2ncn1[C@H]1CCOC[C@@H]1O [Example 13, 3-[(3R,4S)-3-Hydroxytetrahydro-2H-pyran-4-yl]-6-{[6-(1,3-thiazol-4-yl)pyridine-3-yl]methyl}benzo[h]quinazolin-4(3H)-one]
16 | 59 | O=c1c2cc(Cc3ccc(Cl)[n+]([O-])c3)c3ccccc3c2ncn1[C@H]1CCOC[C@@H]1O [Example 14, 6-[(6-Chloro-1-oxidopyridin-3-yl)methyl]-3-[(3R,4S)-3-hydroxytetrahydro-2H-pyran-4-yl]benzo[h]quinazolin-4(3H)-one]
17 | 12 | O=c1c2cc(Cc3ccnc(Cl)c3)c3ccccc3c2ncn1[C@H]1CCOC[C@@H]1O [Example 15, 6-[(2-Chloropyridin-4-yl)methyl]-3-[(3R,4S)-3-hydroxytetrahydro-2H-pyran-4-yl]benzo[h]quinazolin-4(3H)-one]
18 | 53 | CS(=O)(=O)c1ccc(Cc2cc3c(=O)n([C@H]4CCOC[C@@H]4O)cnc3c3ccccc23)cn1 [Example 16, 3-[(3R,4S)-3-Hydroxytetrahydro-2H-pyran-4-yl]-6-{[6-(methylsulfonyl)pyridine-3-yl]methyl}benzo[h]quinazolin-4(3H)-one]
19 | 90 | C[S+]([O-])c1ccc(Cc2cc3c(=O)n([C@H]4CCOC[C@@H]4O)cnc3c3ccccc23)cn1 (stereo partly drawn) [Example 17, 3-[(3R,4S)-3-Hydroxytetrahydro-2H-pyran-4-yl]-6-{[6-(methylsulfinyl)pyridine-3-yl]methyl}benzo[h]quinazolin-4(3H)-one]
20 | 124 | O=C(O)c1ccc(Cc2cc3c(=O)n([C@H]4CCOC[C@@H]4O)cnc3c3ccccc23)cn1 [Example 18, 5-({3-[(3R,4S)-3-Hydroxytetrahydro-2H-pyran-4-yl]4-oxo-3,4-dihydrobenzo[h]quinazolin-6-yl}methyl)pyridine-2-carboxylic acid]
21 | 318 | CN(C)C(=O)c1ccc(Cc2cc3c(=O)n([C@H]4CCOC[C@@H]4O)cnc3c3ccccc23)cn1 [Example 19, 5-({3-[(3R,4S)-3-Hydroxytetrahydro-2H-pyran-4-yl]-4-oxo-3,4-dihydrobenzo[h]quinazolin-6-yl}methyl)-N,N-dimethylpyridine-2-carboxamide]
